Here are results for 53 compounds from PubChem BioAssay AID449762 (Southern Research Specialized Biocontainment Screening …, 2010).

Results filed as inconclusive are left out.

The assay has as its system M. tuberculosis H37Rv growth inhibition, 7H9 media. The experiment in a line: M. tuberculosis growth inhibition, HTS (AID 449762).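 For all read-outs here: bacterial growth assessed after seven days of incubation.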 The following applies: for IC90: measured here: IC90 growth inhibition.

What is called IC90 is the concentration at which the effect reaches the 90% level. High values mean a need for much substance, low ones an effect from little substance. The IC50 is the concentration needed to halve the response being measured.

As to `C/C(=C\C(=O)c1ccccc1)Nc1ccc(Cl)c(Br)c1`, the IC90 is above 100 µM.
Turning to `COc1ccc(NC(=O)CSC2CCCCC2)cc1`, the IC50 is 35.2 µM and the IC90 is above 100 µM.
The corresponding values for `Cc1ccn2c(-c3csc(NCc4ccccc4)n3)c(C)nc2c1` are 46.8 µM and 52.8 µM.
For `Cc1ccc(S(=O)(=O)Nc2cccc3ncccc23)s1`, in that order: below 0.2 µM and 3.93 µM.
The corresponding values for `O=C(Nc1cccc(Cl)c1)N1CCN(C/C=C/c2ccccc2)CC1` are 37.5 µM and 52.7 µM.
`CCOC(=O)CCCc1ccc(/C(C)=N/NC(N)=S)cc1`: the IC50 was 6.5 µM and the IC90 turned out to be 14.7 µM.
Consider `COc1ccc(/C=C/CN2CCC(CO)(Cc3ccccc3Cl)CC2)cc1`, for which the IC50 is 23.1 µM and the IC90 amounted to 26.6 µM.
For `CCCCCCc1cc2cc(C(=O)NCc3ccccc3)c(=N)oc2cc1O`, in that order: 3.45 µM and 5.73 µM.
The corresponding values for `C[C@@H]1CCCCCCCCC(=O)OCCN[C@H](C)CCCCCCCCC(=O)OCCN[C@H](C)CCCCCCCCC(=O)OCCN1` are 25.2 µM and 29.4 µM.
The corresponding values for `CCOC(=O)c1cc(/C(C)=N/OC(=O)c2ccc(C(C)(C)C)cc2)on1` are 13.1 µM and 24.8 µM.
For the compound `Cc1noc2ncnc(Sc3ccc(Cl)cc3)c12`, the IC50 is 82.9 µM and the IC90 is above 100 µM.
As to `CCOC(=O)C(C)Sc1nc(-c2cccs2)ccc1C#N` (stereo not drawn), the IC50 is 37.6 µM and the IC90 was found to be 50.8 µM.
The corresponding values for `CN1CCN(CC(=O)N2CCn3c4c(c5cc(C6CCCCC6)ccc53)CCCC42)CC1` (stereo not drawn) are 21.7 µM and 23.6 µM.
As to `O=C1N=C(N2CCC(Cc3ccccc3)CC2)S/C1=C/c1cn[nH]c1-c1ccccc1`, the IC50 is 27.5 µM and the IC90 is above 100 µM.
For `O=C(Nc1nnc(-c2ccccc2Cl)o1)c1nc2ccccc2s1`, in that order: 6.01 µM and 6.78 µM.
Consider `O=C(CN1CCC(n2nnc3cc(C(F)(F)F)ccc32)CC1)NCc1cccs1`, for which the IC50 is 37.5 µM and the IC90 was determined as 47.8 µM.
The corresponding values for `COc1ccccc1C1c2ccc3ccccc3c2Oc2ncn(CCN(C)C)c(=N)c21` (stereo not drawn) are 22.3 µM and 24.9 µM.
The corresponding values for `CCc1ccc(-c2cc(C)no2)cc1S(=O)(=O)NCCCN1CCN(c2ccccc2)CC1` are 34.7 µM and 44.7 µM.
With `Cc1ccc2c(c1)c1c3n2CCN=C3CCC1`, the IC50 was 10.3 µM and the IC90 was determined as 19 µM.
The corresponding values for `COC(=O)c1ccc2c(c1O)C(=O)c1ccccc1C2=O` are 65.4 µM and 77.9 µM.
The corresponding values for `COc1ccc(N(CC(=O)Nc2ccccc2C(N)=O)S(=O)(=O)c2ccc(C)c([N+](=O)[O-])c2)cc1` are 87.7 µM and above 100 µM.
As to `O=C(NCc1ccc2c(c1)OCO2)c1c(O)nc2sccn2c1=O`, the half-inhibitory concentration (IC50) is 40 µM and the IC90 was above 100 µM.
As to `C=CCOc1ccc2c(c1)C(=NO)c1cc(OCC=C)ccc1-2`, the IC50 was 5.82 µM and the IC90 was determined as 9.27 µM.
Take `Cc1[nH]n(-c2ccccc2)c(=O)c1C(C[N+](=O)[O-])c1ccccc1Cl` (stereo not drawn): the IC50 was 6.99 µM and the IC90 was 14.3 µM.
`Cc1ccc(NC(=O)c2cnc(SCC(=O)NCC3CCCO3)n(C)c2=O)cc1C` (stereo not drawn): the IC50 was 9.73 µM and the IC90 came out at 35.1 µM.
Turning to `CCOc1ccc(NC(=O)CCc2nnc3ccc(N4CCC(C)CC4)nn23)cc1`, the IC50 is 8.75 µM and the IC90 was determined as 15.3 µM.
Regarding `O=C(O)c1ccccc1C(=O)NNc1ccc(Cl)cc1Cl`, the IC90 was above 100 µM.
For the compound `O=C(Nc1nc2ccc(F)cc2s1)C1CCN(S(=O)(=O)c2cc([N+](=O)[O-])ccc2Cl)CC1`, the IC50 was 10.9 µM and the IC90 was found to be 16 µM.
As for `O=C(OCC(=O)c1c[nH]c2ccccc12)c1cc(Br)ccc1O`, the IC50 is 9.23 µM and the IC90 amounted to 15.3 µM.
For `CN1CCN(c2c(F)cc3c(=O)c(C(=O)O)cn4c3c2OCN4C)CC1`, in that order: 0.72 µM and 0.8 µM.
For the compound `CCCc1ncc(CN2CCCC(C(=O)Nc3ccc(-c4cccc(OC)c4)cc3)C2)cn1` (stereo not drawn), the IC90 was above 100 µM.
For `O=C(CCl)N1CCCC1c1ccc2c(c1)OCCO2` (stereo not drawn), the IC50 was 3.45 µM and the IC90 was determined as 9.07 µM.
The corresponding values for `c1ccc2c(c1)ncn2CCCCOc1ccc2c(c1)CCC2` are 22.8 µM and 25.7 µM.
For `Cn1cnc([N+](=O)[O-])c1Sc1ccc(Br)cc1`, in that order: 8.81 µM and 16.9 µM.
The corresponding values for `Cn1c(/C=N/Nc2nc3ccccc3[nH]2)nc2ccccc21` are 40.1 µM and 61.4 µM.
In the case of `CCOC(=O)Cn1nc(-c2ccccc2)nc1-c1ccccc1`, the IC50 was 5.84 µM and the IC90 worked out at 22.7 µM.
As to `c1ccc(CCN2CCN(c3ncnc4c3cnn4-c3ccccc3)CC2)cc1`, the IC50 is 21.3 µM and the IC90 stood at 43 µM.
The corresponding values for `O=C(OCC(=O)c1cccs1)C1=COCCO1` are 21.4 µM and above 100 µM.
Regarding `CCNc1nc(Nc2ccc(C)c(Cl)c2)c2cnn(C)c2n1`, the IC50 is 43.3 µM and the IC90 is above 100 µM.
Turning to `O=c1c(Cl)c2oc3ccccc3nc-2c2ccccc12`, the IC50 was 9.38 µM and the IC90 stood at 11.9 µM.
For `O=c1[nH]c2ccccc2c2oc(CCl)nc12`, the IC50 is 1.14 µM and the IC90 is 19.2 µM.
Turning to `CCOC(=O)CSc1nn(-c2ccccc2)c(=S)s1`, the IC50 was 4.75 µM and the IC90 worked out at 9.22 µM.
The corresponding values for `Fc1ccc(C[n+]2c(-c3ccccc3)cc(-c3ccccc3)cc2-c2ccccc2)cc1` are 32.3 µM and 44.3 µM.
As for `Cc1ccc(OCCN2CCN(c3ncnc4sc(C)c(C)c34)CC2)cc1`, the IC50 is 93.7 µM and the IC90 is above 100 µM.
For `CC(C)c1ccc2c(c1)CCC1C(C)(CN)CCCC21C` (stereo not drawn), in that order: 15.7 µM and 25.6 µM.
In the case of `O=C1c2ccccc2S(=O)(=O)c2cc(C(=O)N3CCN(c4c(Cl)cncc4Cl)CC3)ccc21`, the IC50 is 32 µM and the IC90 came to 46.5 µM.
The corresponding values for `Cn1c(NC(=S)Nc2ccccc2)nc2ccccc21` are 3.71 µM and 6.27 µM.
The corresponding values for `O=C(/C=C/c1ccc([N+](=O)[O-])cc1)NC1CC2CCC1C2` (stereo not drawn) are 44.6 µM and 84.1 µM.
For `COc1ccccc1C(=O)NC(=Nc1nc2ccccc2o1)NC(=O)c1ccccc1OC`, in that order: 96.3 µM and above 100 µM.
With `Cc1ccccc1NC1=C/C(=N\S(=O)(=O)c2cccs2)c2ccccc2C1=O`, the IC50 is 7.97 µM and the IC90 was 11.8 µM.
Consider `O=[N+]([O-])c1ccc(S(=O)(=O)c2ccccc2)nc1`, for which the IC50 was 1.01 µM and the IC90 was determined as 2.08 µM.
As for `COCC(=O)O[C@]1(CCN(C)CCCc2nc3ccccc3[nH]2)CCc2cc(F)ccc2[C@@H]1C(C)C`, the IC50 is 32.2 µM and the IC90 was 42.6 µM.
For `O=C(NCC1CC1)c1cc([N+](=O)[O-])cc([N+](=O)[O-])c1`, in that order: 5.75 µM and 6.43 µM.
